According to patent US20220243249A1, “ANTAGONISTS OF CAMKII-DELTA 9 AND USES THEREOF” (PEKING UNIVERSITY, priority 2019, published 2022):
Peptide text beside a SMILES is read from it. * marks the point of attachment. Cbz = O=C(OCc1ccccc1)*

Key:
NRVMs = test: DNA damage by γH2AX and comet assay in NRVMs; type: cell-based, rat; conditions: β-lac 5 μM, MG132 10 μM
Method: Cultured neonatal rat ventricular cardiomyocytes (NRVMs) were treated as indicated, and then washed with cold PBS, following the protocol of the comet assay kit (Trevigen, Cat #: 4250-050-K) under alkaline conditions. Mean tail moments were quantified for 300-500 cells per sample in each experiment, with Comet Assay Software Project (v1.2.3b1).
(§1) Cardiomyocyte immunofluorescence was measured as previously described (Erickson, J. R. et al., Physiological reviews 91, 889-915, doi:10.1152/physrev.00018.2010 (2011)).

UBE2T [1] = test: UBE2T protein level by western blot in NRVMs; type: cell-based, rat; conditions: for CaMKII-δ9-induced reduction of the UBE2T protein level: β-lac 5 μM, MG132 10 μM
Method: NRVMs were isolated from 1-day-old Sprague-Dawley rats, and adenovirus-mediated gene transfer was implemented using methods described previously (Zhang, T. et al., Nature medicine 22, 175-182, doi: 10.1038/nm.4017 (2016)). NRVMs were exposed to H2O2 (200 μM) or Dox (1 μM) for 24 h.
(§2) Western blot and co-immunoprecipitation were performed as previously described (Zhang, T. et al., Nature medicine 22, 175-182, doi:10.1038/nm.4017 (2016)).

UBE2T [2] = test: Immunostaining of myc-tagged UBE2T location in NRVMs; type: cell-based, rat; design: dose or concentration left out as unconfirmed
Method: as §1

CaMKII-δ9 = CaMKII-δ9 protein level, phosphorylation and oxidation in NRVMs under stress; type: cell-based, rat; conditions: for expression of CaMKII-δ9 (protein): Dox 1 μM or H2O2 200 μM, 24 h
Method: NRVMs were isolated from 1-day-old Sprague-Dawley rats, and adenovirus-mediated gene transfer was implemented using methods described previously (Zhang, T. et al., Nature medicine 22, 175-182, doi: 10.1038/nm.4017 (2016)). […]
as §2

exon 16 of CaMKII-δ = test: Transverse aortic constriction (TAC) in CaMKII-δ9 shRNA transgenic mice; type: in vivo, mouse
Method: Transverse aortic constriction (TAC) was performed in 6-week-old male mice. Mice were anesthetized under 3% isoflurane via intubation, the chest was opened, the aortic arch was visualized, and a 7-0 silk suture was passed under the arch between the innominate and left common carotid arteries. The suture was secured around both the aorta and a 28-gauge needle, the needle was removed, the chest was closed, and the mouse was extubated. Sham-operated mice underwent an identical procedure except for the aortic ligation. Mice were given buprenorphine via intraperitoneal injection during recovery.
The sequence of miR30-based CaMKII-δ9 shRNA was 5′-[…] […]-3′ (SEQ ID NO: 37). The shRNA with an N-terminal EGFP tag and C-terminal BGH poly A sequences was cloned into the pLKO.1 plasmid containing the U6 promoter. After linearization, gel-purification was performed. This construct was microinjected into the pronuclei of fertilized C57BL/6J mouse eggs. PCR was used for genotyping. The primer sequences were 5′-[…]-3′ (forward) (SEQ ID NO: 38) and 5′-[…]-3′ (reverse) (SEQ ID NO: 39).
Echocardiographic analysis using a Vevo2100 digital imaging system (Visual Sonics, Toronto, ON, Canada) was performed under 1% isoflurane at 6 and 10 weeks of age, with mid-ventricular M and B mode measurements acquired in the parasternal short-axis view at the level of the papillary muscles. Once the mice were acclimated to the procedures, images were stored in digital format on a magnetic optical disk for review and analysis. Measurements of the LV internal end-diastolic diameter (LVIDd) were made at the time of apparent maximal LV diastolic dimension, while measurements of the LV internal end-systolic diameter (LVIDs) were taken at the time of the most anterior systolic excursion of the posterior wall. LV ejection fraction (EF) was calculated by the cubic method: LVEF (%)={(LVIDd)^3−(LVIDs)^3}/(LVIDd)^3×100, and LV fractional shortening (FS) was calculated by FS (%)=(LVIDd−LVIDs)/LVIDd×100. The data were averaged from 5 cardiac cycles.
Histological analysis of heart tissue was as previously described (Zhang, T. et al. Nature medicine 22, 175-182, doi: 10.1038/nm.4017 (2016)). The CardioTACS™ in situ apoptosis detection kit (Roche Applied Science, Cat #: 11684795910) was used for TUNEL staining as previously described (Zhang, T. et al. Nature medicine 22, 175-182, doi:10.1038/nm.4017 (2016)).

Molecule: CC(C)[C@H](O)[C@@]12NC(=O)[C@H](C)[C@@H]1OC2=O [β-lac, clasto-lactacystin β-lactone]
- CaMKII-δ9-mediated γH2AX upregulation (NRVMs): block
- CaMKII-δ9-induced reduction of the UBE2T protein level (UBE2T [1]): fully abolished

Molecule: CC(C)C[C@@H](C=O)NC(=O)[C@H](CC(C)C)NC(=O)[C@H](CC(C)C)NC(=O)OCc1ccccc1 [MG132] (Cbz-Leu-Leu-Leu-aldehyde)
- subcellular location of UBE2T (UBE2T [2]): present in both the nuclear and cytosolic compartments
- CaMKII-δ9-mediated γH2AX upregulation (NRVMs): block
- CaMKII-δ9-induced reduction of the UBE2T protein level (UBE2T [1]): fully abolished

Molecule: COc1cccc2c1C(=O)c1c(O)c3c(c(O)c1C2=O)C[C@@](O)(C(=O)CO)C[C@@H]3O[C@H]1C[C@H](N)[C@H](O)[C@H](C)O1 [Doxorubicin]
- expression of CaMKII-δ9 (protein) (CaMKII-δ9): significantly elevated
- oxidation level of CaMKII-δ9 (CaMKII-δ9; Dox 1 μM, 30 and 60 min): increased
- phosphorylation level of CaMKII-δ9 (CaMKII-δ9; Dox 1 μM, 30 and 60 min): increased

Molecule: OO [H2O2]
- expression of CaMKII-δ9 (protein) (CaMKII-δ9): significantly elevated
- UBE2T protein level (UBE2T [1]; NRVMs, western blot): decreased

B1: CaMKII-δ9 shRNA: miR30-based CaMKII-δ9 shRNA (SEQ ID NO: 37) targeting exon 16, expressed transgenically in mice (nucleic acid)
DNA: GAAGGTATATTGCTGTTGACAGTGAGCGCAATCCACAACCCTGACGGAAATAGTGAAGCCACAGATGTATTTCCGTCAGGGTTGTGGATTATGCCTACTGCCTCGG
- TAC-induced cardiac DNA damage (γH2AX) (exon 16 of CaMKII-δ; 4 weeks after TAC surgery): reduced
- TAC-induced cardiac hypertrophy (exon 16 of CaMKII-δ; 4 weeks after TAC surgery): markedly attenuated
- TAC-induced cardiomyocyte death (TUNEL) (exon 16 of CaMKII-δ; 4 weeks after TAC surgery): reduced
- TAC-induced contractile dysfunction (EF, FS) (exon 16 of CaMKII-δ; 4 weeks after TAC surgery): markedly attenuated
- cardiac UBE2T protein abundance (exon 16 of CaMKII-δ; 4 weeks after TAC surgery): augmented
- TAC-induced premature death (exon 16 of CaMKII-δ; Kaplan-Meier survival): markedly attenuated
